Broadly, the IC50 is the concentration that inhibits the measured activity by half. As a reminder, the EC50 is the concentration giving half of the maximal effect. The AC50 is the concentration at which the activity in the assay is half-maximal. Broadly, the CC50 is the concentration at which the toxic effect on the cells reaches its halfway point.

The source made the active and inactive calls. Some results are limits rather than exact numbers.

A short description of assay [1]: viability inhibitors of stage V gametocytes – luminescence, dose response (AID 1117278).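 Further: gametocytes exposed to compound for 24 hours.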 It counts as functional, cell-based.
A short description of assay [2]: viability loss in human Jurkat cells – cell-based, luminescence, cytotoxicity control for P. falciparum gametocyte viability project, dose response (AID 1117277).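 Further: potency reflects loss of cellular ATP meaning fewer viable cells.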 It counts as functional.
Assay [3] can be described thus: HEK-293T cell viability reduction – luminescence, B-cell screen hits, cytotoxicity control for BCR NF-kB inhibitor project, dose response (AID 489021).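 Further: HEK-293T cells carrying an NF-kB luciferase reporter; cells exposed to compound for about 14 hours before viability readout.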 The format is functional, cell-based.
A further assay has as its target T1, Protein RecA (Mycobacterium tuberculosis, UniProt P9WHJ3).
T1 sequence (P9WHJ3 whole entry): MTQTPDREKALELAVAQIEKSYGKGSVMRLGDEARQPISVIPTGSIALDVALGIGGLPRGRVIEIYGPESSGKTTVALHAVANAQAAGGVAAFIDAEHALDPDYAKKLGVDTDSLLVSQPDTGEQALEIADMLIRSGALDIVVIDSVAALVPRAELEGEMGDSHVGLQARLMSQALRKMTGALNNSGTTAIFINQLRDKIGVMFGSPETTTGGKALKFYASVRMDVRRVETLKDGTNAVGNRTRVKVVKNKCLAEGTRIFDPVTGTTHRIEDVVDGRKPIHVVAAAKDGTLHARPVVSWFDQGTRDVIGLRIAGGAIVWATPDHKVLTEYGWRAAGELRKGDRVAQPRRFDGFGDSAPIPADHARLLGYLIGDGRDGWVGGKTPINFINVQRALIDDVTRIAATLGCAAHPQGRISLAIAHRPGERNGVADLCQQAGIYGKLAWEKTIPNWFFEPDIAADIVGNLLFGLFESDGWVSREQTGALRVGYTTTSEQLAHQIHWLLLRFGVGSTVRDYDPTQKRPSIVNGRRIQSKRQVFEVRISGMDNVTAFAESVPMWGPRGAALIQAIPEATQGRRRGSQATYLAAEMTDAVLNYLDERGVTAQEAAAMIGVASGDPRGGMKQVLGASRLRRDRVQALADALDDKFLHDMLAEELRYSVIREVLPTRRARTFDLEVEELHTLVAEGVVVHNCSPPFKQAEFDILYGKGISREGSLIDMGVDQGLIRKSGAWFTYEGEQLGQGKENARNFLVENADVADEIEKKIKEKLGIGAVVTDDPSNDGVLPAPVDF
Put plainly: Fluorescence Cell-Free Homogeneous Dose Retest to Identify Inhibitors of RecA-Intein Splicing Activity. [Related pubchem assays (depositor defined):AID2097, AID2223, AID489010, AID492950]. The format is functional.

Assay [4] addresses G-protein coupled receptor 35 (Homo sapiens, UniProt Q9HC97). The assay can be described thus: SAR Analysis for the identification of Selective Antagonists of ERK1/2 Activity in GPR35-Overexpressing U2OS Cells. [Related pubchem assays: 2079, 2058 ]. The format is functional, cell-based.
In assay [5] the target is G-protein coupled receptor 55 (Homo sapiens, UniProt Q9Y2T6). Put plainly: blockers of GPR55 signalling, imaged – imaging, image-based, counter-screen for GPR35 antagonist project, SAR follow-up (AID 2397). The format is functional.
The target of assay [6] is T2, Replicative DNA helicase DnaB (Mycobacterium tuberculosis, UniProt P9WMR3).
T2 sequence (P9WMR3 whole entry): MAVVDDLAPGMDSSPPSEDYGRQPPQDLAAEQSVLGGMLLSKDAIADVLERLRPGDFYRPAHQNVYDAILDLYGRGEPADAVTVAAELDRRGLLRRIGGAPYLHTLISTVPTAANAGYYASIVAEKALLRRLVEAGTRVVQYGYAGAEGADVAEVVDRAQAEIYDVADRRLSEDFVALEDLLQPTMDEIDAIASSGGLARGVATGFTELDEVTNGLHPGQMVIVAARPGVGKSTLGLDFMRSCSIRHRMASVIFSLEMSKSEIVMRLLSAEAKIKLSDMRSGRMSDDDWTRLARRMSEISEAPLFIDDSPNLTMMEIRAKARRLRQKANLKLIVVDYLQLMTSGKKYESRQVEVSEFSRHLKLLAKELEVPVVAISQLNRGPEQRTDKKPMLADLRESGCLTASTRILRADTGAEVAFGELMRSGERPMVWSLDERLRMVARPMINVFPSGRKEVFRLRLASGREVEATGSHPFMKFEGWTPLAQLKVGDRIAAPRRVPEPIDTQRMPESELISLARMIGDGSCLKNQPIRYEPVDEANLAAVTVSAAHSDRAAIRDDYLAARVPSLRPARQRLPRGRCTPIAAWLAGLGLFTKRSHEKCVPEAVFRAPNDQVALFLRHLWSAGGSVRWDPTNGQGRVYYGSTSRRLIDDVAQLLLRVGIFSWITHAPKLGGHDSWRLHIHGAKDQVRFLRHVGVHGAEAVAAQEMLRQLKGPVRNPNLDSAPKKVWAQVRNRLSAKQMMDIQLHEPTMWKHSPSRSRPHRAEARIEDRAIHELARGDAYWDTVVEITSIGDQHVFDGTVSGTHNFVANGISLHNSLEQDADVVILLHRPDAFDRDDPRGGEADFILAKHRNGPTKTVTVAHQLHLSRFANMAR
The assay can be described thus: DnaB intein splicing inhibitors, dose response, biochemical, cell-free fluorescence (AID 449749). It counts as functional.

Assay [7] can be described thus: viability loss in Vero cells – cytotoxicity control for Vif-APOBEC3G degradation inhibitor project, dose response (AID 1117358). The format is functional. To be noted: Vero.
Assay [8] is described as follows: HIV-1 Vif–A3G interaction blockers – biochemical, TR-FRET, GST-Vif 1-94, biotin-A3G peptide, dose response retest, primary screen (AID 1117319).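 Further: TR-FRET signal of purified GST-Vif binding a biotinylated A3G peptide; inhibitors lower the FRET signal by blocking Vif and A3G binding.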 It counts as functional. A general note: In TR-FRET formats the signal depends on donor and acceptor labels being close together.
A further assay concerns the target Protein Tat (Human immunodeficiency virus type 1 group M subtype B (isolate HXB2)(HIV-1), UniProt P04608). It counts as functional.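 Further: tat binding to TAR RNA read out by fluorescence polarization.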

Sequence of Protein Tat (P04608 whole entry): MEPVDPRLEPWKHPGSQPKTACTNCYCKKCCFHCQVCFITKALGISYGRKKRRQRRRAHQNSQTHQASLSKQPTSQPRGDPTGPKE
Sequence of G-protein coupled receptor 35 (Q9HC97 whole entry): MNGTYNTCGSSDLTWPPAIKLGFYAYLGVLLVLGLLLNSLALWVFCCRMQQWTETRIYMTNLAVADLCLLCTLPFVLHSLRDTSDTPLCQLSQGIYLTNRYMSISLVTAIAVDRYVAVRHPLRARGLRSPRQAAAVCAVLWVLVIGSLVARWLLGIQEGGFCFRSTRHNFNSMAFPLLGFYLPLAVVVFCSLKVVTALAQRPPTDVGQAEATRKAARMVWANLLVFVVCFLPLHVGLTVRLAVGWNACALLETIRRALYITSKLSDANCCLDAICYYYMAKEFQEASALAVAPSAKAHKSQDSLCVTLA
Sequence of G-protein coupled receptor 55 (Q9Y2T6 whole entry): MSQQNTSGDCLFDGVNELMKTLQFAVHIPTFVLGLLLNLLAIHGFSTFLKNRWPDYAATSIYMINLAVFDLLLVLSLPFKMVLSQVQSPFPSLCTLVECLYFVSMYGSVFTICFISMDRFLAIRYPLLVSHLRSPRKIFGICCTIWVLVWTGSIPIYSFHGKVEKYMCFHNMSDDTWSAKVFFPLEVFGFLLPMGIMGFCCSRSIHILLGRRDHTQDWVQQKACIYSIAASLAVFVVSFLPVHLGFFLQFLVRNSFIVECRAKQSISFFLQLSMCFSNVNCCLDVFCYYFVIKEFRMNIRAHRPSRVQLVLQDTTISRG

For `COc1ccccc1OCCOCCOc1ccccc1Cl`, the IC50 in assay [1] is > 109 µM (inactive); in assay [2], > 83.3 µM (inactive).
Regarding `COc1ccc(/C=C2\SC(=S)N(CCCC(=O)Nc3ccc(O)cc3)C2=O)cc1`, the IC50 is > 80 µM (inactive) in [3], > 32 µM (not active) in assay [4] and > 32 µM (inactive) in [5]. Also, the EC50 on Protein RecA is 78.1 µM (active). Besides, the AC50 in assay [6] is > 380 µM (inactive).
For `Cc1ccc(C)c(S(=O)(=O)Nc2ccccc2C(=O)Nc2ccccc2N2CCOCC2)c1`, the CC50 in assay [7] was > 40 µM (active).
As to `CCOc1ccccc1N1C(=O)CC(Nc2ccc(N3CCOCC3)cc2)C1=O` (stereo not given), the IC50 was > 50.6 µM (active) in assay [8] and 16.3 µM (inconclusive) on Protein Tat.

Values taken from ChEMBL document CHEMBL1201862, “PubChem BioAssay data set” (2004).
